# In patent publication US20100168170A1, “Piperidinones Useful in the Treatment of Inflammation” (priority 2007, published 2010):
# Biological target: T1, human platelet PDE3 (Homo sapiens, UniProt Q14432)
# T1 construct: tissue AllCells, LLC PB027; host or cells: human platelets, 70,000 g supernatant of sonicated lysate
# Experiment: In vitro inhibition of PDE3 phosphodiesterases (platelet extract, [3H]cAMP SPA)
# Type: biochemical
# Conditions: cAMP as substrate
# Experimental: Compounds of the invention were evaluated for inhibitory activity against human platelet PDE3 to ascertain PDE3 inhibition. The PDE3 assay was performed using platelet cell extract as described above in Biological Example 1 for the PDE4 assay. Platelets are known contain PDE's 2, 3 and 5. However […] utilize cGMP, so in an assay with cAMP as a substrate they are not detected.
# Human platelet cytoplasmic extracts were prepared by modified method of Keller et al. Human platelets (AllCells, LLC; Cat. No. PB027) were sonicated in supplemented lysis buffer. Supplemented lysis buffer consisted of 20 mM Tris, 1 mM EDTA, 1 mM DTT, 0.25 M sucrose, 1 mM benzamidine, 1 μg/mL Leupeptin, 1 μM Pepstatin, and 0.1 mM PMSF, pH 7.5. The platelet lysates were centrifuged at 70,000 g for 30 minutes at 4° C. The supernatants were aliquoted and stored at −80° C.
# Reactions were performed in duplicate by the addition of 10 μL PDE3 lysate to 20 μL of assay mix and 20 μL of test compounds in Isoplates (Wallac) for 30 minutes, at 37° C. […] The plate was sealed, shaken for 1 minute and then allowed to settle 30 minutes and the cpm determined using a Wallac Micobeta.
# PDE3 enzyme was added in quantities such that less than 15% of substrate was consumed (linear assay conditions).
# T1 sequence (Q14432 whole entry): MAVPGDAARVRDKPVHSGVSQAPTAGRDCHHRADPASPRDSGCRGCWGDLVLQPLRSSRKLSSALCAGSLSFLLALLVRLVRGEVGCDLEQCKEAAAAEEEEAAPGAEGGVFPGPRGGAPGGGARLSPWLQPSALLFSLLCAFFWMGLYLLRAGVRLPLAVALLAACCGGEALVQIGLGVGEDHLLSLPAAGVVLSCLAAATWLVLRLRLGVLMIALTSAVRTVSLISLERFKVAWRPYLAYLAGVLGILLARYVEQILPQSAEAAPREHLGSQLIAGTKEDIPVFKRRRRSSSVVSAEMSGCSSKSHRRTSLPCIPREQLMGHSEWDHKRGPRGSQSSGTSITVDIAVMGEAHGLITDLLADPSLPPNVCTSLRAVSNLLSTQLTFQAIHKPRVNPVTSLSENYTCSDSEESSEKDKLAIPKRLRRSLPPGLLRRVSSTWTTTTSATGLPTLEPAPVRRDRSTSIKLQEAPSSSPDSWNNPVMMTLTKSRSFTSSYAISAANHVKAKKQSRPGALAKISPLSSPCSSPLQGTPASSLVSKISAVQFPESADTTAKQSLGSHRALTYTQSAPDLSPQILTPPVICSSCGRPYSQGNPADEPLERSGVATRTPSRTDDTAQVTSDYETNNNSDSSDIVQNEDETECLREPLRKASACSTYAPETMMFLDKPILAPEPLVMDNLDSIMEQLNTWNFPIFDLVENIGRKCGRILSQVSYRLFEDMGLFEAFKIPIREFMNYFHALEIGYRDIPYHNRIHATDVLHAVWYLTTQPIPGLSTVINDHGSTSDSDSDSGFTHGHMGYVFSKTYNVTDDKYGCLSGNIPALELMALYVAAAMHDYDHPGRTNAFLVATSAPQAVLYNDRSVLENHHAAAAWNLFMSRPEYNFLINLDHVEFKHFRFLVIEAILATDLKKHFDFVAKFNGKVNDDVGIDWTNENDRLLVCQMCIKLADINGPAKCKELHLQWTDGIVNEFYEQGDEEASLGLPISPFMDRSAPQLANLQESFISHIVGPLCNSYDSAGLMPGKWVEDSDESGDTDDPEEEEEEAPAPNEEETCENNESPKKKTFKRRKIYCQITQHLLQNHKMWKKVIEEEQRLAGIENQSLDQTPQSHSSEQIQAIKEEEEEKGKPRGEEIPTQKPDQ
row,inhibition of PDE3 (assay specificity control),Structure (SMILES)
1,without effect,COc1ccc(C2CNC(=O)C2)cc1OC1CCCC1 (stereo not drawn) [rolipram]
2,potent inhibitor,COc1cc2c(cc1OC)-c1c/c(=N\c3c(C)cc(C)cc3C)n(C)c(=O)n1CC2 [trequinsin]

# Biological target: PDE4 enzyme (U937 lysate or recombinant hPDE4)
# Experiment: In vitro inhibition of PDE4 phosphodiesterases ([3H]cAMP SPA enzyme assay, Method A)
# Type: biochemical, human
# Conditions: Biological Example 1, Method A
# Experimental: PDE4 U937 cytoplasmic extracts were prepared by a modified procedure of the assay described in MacKenzie, S. J. and Houslay, M. D., “Action of rolipram on specific PDE4 cAMP phosphodiesterase isoforms and on the phosphorylation of cAMP-response-element-binding protein (CREB) and p38 mitogen-activated protein (MAP) kinase in U937 monocytic cells”, Biochem J. (2000), 347(Pt 2):571-8, by lysis of U937 cells (ATCC: Catalogue No. CRL-159) in M-PER Lysis buffer (Pierce) containing 10% protease inhibitor cocktail (Sigma). The cell lysates were then centrifuged at 30,000 rpm for 15 minutes at 4° C. The supernatants were aliquoted and stored at −80° C.
# An alternative source of PDE4 enzymes was from recombinant human PDE4 obtained from baculovirus-SF9 cells expression system. cDNA containing PDE4D1 was cloned into a baculovirus vector, insect cells (SF9) were then infected and cells cultured to express the PDE4 protein. The cells were lysed and used directly in assay or partially purified using standard procedures. The process can be used for other PDE4 and PDE enzymes.
# Compounds of the invention were evaluated for inhibitory activity against PDE4 enzymes by the following assay Method A or B.
# PDE4 assay based on modified procedure of Phosphodiesterase [^3H]cAMP SPA Enzyme Assay (Amersham Biosciences, code TRKQ 7090). In this assay, PDE4 enzymes converts [^3H]cAMP to [^3H]5′-AMP. The assay is quenched by the addition of SPA yttrium silicate beads which preferentially bind linear nucleotides over cyclic nucleotides in the presence of zinc sulphate.
# Reactions were performed in duplicate by the addition of 10 μl PDE4 enzyme (U937 lysate or recombinant hPDE4) to 20 μL of assay mix and 20 μL of test compounds in Isoplates (Wallac) for 30 minutes, at 37° C. The final assay mixture contained: 50 mM Tris (pH 7.5), 8.3 mM MgCl2, 1.7 mM EGTA and [^3H]cAMP (0.025 μCi) (Amersham). Assay was terminated by addition 25 μL SPA beads. The plate was sealed, shaken for 1 minute and then allowed to settle 30 minutes and the cpm determined using a Wallac Micobeta.
# PDE4 enzyme was added in quantities such that less than 15% of substrate was consumed (linear assay conditions).
row,IC50,Structure (SMILES)
1,1.1 µM,"COc1ccc([C@@H]2C[C@H](Cc3cccc(C)c3)C(=O)N(C(C)=O)C2)cc1OC1CCCC1 [(3R,5S)-1-acetyl-5-(3-(cyclopentyloxy)-4-methoxyphenyl)-3-(3-methylbenzyl)piperidin-2-one]"
2,6.78 µM,"COc1ccc([C@@H]2C[C@H](Cc3cccc(C)c3)C(=O)N(CC(C)C)C2)cc1OC1CCCC1 [(3R,5S)-5-(3-(cyclopentyloxy)-4-methoxyphenyl)-1-isobutyl-3-(3-methylbenzyl)-piperidin-2-one]"
3,0.101 µM,"COc1ccc([C@H]2CNC(=O)[C@H](Cc3ccc(F)c(F)c3)C2)cc1OC1CCCC1 [(3S,5S)-5-(3-(cyclopentyloxy)-4-methoxyphenyl)-3-(3,4-difluorobenzyl)piperidin-2-one]"
4,0.604 µM,"CCCNc1cccc(C[C@@H]2C[C@@H](c3ccc(OC)c(OC4CCCC4)c3)CNC2=O)c1 [(3S,5S)-5-(3-(cyclopentyloxy)-4-methoxyphenyl)-3-(3-(propylamino)benzyl)-piperidin-2-one]"
5,0.379 µM,COc1cc(CC2C[C@@H](c3ccc(OC)c(OC4CCCC4)c3)CNC2=O)ccc1OC1CCCC1 (stereo partly drawn) [(5S)-3-(4-(cyclopentyloxy)-3-methoxybenzyl)-5-(3-(cyclopentyloxy)-4-methoxyphenyl)piperidin-2-one]
6,0.519 µM,COc1cc(CC2C[C@@H](c3ccc(OC)c(-c4ccccc4)c3)CNC2=O)ccc1OC1CCCC1 (stereo partly drawn) [(5S)-3-(4-(cyclopentyloxy)-3-methoxybenzyl)-5-(6-methoxybiphenyl-3-yl)piperidin-2-one]

# The next lines start with the compound.
row,Structure (SMILES),IC50
1,"COc1ccc([C@H]2CNC(=O)[C@@H](Cc3ccc(OCC(N)=O)cc3)C2)cc1OC1CCCC1 [2-(4-(((3R,5S)-5-(3-(cyclopentyloxy)-4-methoxyphenyl)-2-oxopiperidin-3-yl)methyl)phenoxy)acetamide]",1.34 µM
2,"COc1ccc([C@H]2CNC(=O)[C@@H](Cc3cccc(OCc4ccccc4)c3)C2)cc1OC1CCCC1 [(3R,5S)-3-(3-(benzyloxy)benzyl)-5-(3-(cyclopentyloxy)-4-methoxyphenyl)piperidin-2-one]",0.189 µM
3,"COc1ccc([C@H]2CNC(=O)[C@H](CCCCCc3ccccc3)C2)cc1OC1CCCC1 [(3R,5S)-5-(3-(cyclopentyloxy)-4-methoxyphenyl)-3-(5-phenylpentyl)piperidin-2-one]",0.578 µM
4,"COc1ccc([C@H]2CNC(=O)[C@H](Cc3ccc(Oc4ccccc4)cc3)C2)cc1OC1CCCC1 [(3S,5S)-5-(3-(cyclopentyloxy)-4-methoxyphenyl)-3-(4-phenoxybenzyl)piperidin-2-one]",0.457 µM
5,CCCCCCCOc1cc([C@H]2CNC(=O)C(Cc3ccccc3)C2)ccc1OC (stereo partly drawn) [(5S)-3-benzyl-5-(3-(heptyloxy)-4-methoxyphenyl)piperidin-2-one],1.28 µM
6,COc1ccc([C@H]2CNC(=O)C(C(C)c3ccccc3)C2)cc1OC1CCCC1 (stereo partly drawn) [(5S)-5-(3-(cyclopentyloxy)-4-methoxyphenyl)-3-(1-phenylethyl)piperidin-2-one],1.04 µM
7,"CCOc1cc([C@H]2CNC(=O)C(Cc3ccc(F)cc3)(Cc3ccc(F)cc3)C2)ccc1OC [(S)-5-(3-ethoxy-4-methoxyphenyl)-3,3-bis(4-fluorobenzyl)piperidin-2-one]",5.08 µM
